Assay results published in ChEMBL document CHEMBL1201862, “PubChem BioAssay data set” (2004).
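Where inhibition never reached the appropriate level, the endpoint shown equals the highest concentration tested. Otherwise, values were interpolated linearly from a five-concentration, 48-hour dose response in 96-well plates. GI50: concentration for 50% inhibition of growth.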 Calls of active or inactive are those of the source. Rule as the data show it: active = GI50 up to about 1.1 µM and inactive = higher.

Legend:
Assay in all cases: inhibition of tumour cell growth, NCI panel, 48 h
SR = tested on: SR
EKVX = tested on: EKVX
MDA-MB-435 = tested on: MDA-MB-435
T47D = tested on: T47D
A498 = tested on: A498
HOP-62 = tested on: HOP-62
SK-OV-3 = tested on: SK-OV-3
OVCAR-4 = tested on: OVCAR-4
SK-MEL-2 = tested on: SK-MEL-2
Hs-578T = tested on: Hs-578T
MDA-N = tested on: MDA-N
MCF7 = tested on: MCF7
NCI-H460 = tested on: NCI-H460
SF-539 = tested on: SF-539
NCI/ADR-RES = tested on: NCI/ADR-RES
HCT-116 = tested on: HCT-116
KM12 = tested on: KM12
HOP-92 = tested on: HOP-92
CAKI-1 = tested on: CAKI-1
SK-MEL-5 = tested on: SK-MEL-5
NCI-H226 = tested on: NCI-H226
SF-268 = tested on: SF-268
786-0 = tested on: 786-0
OVCAR-3 = tested on: OVCAR-3
HCT-15 = tested on: HCT-15
RPMI-8226 = tested on: RPMI-8226
HT-29 = tested on: HT-29
MOLT-4 = tested on: MOLT-4
COLO 205 = tested on: COLO 205
NCI-H23 = tested on: NCI-H23
CCRF-CEM = tested on: CCRF-CEM
M14 = tested on: M14
A549 = tested on: A549
OVCAR-5 = tested on: OVCAR-5
SNB-75 = tested on: SNB-75
PC-3 = tested on: PC-3
U-251 = tested on: U-251
ACHN = tested on: ACHN
MDA-MB-231 = tested on: MDA-MB-231
UACC-62 = tested on: UACC-62
TK-10 = tested on: TK-10
IGROV-1 = tested on: IGROV-1
DU-145 = tested on: DU-145
HL-60 = tested on: HL-60
SF-295 = tested on: SF-295
SW-620 = tested on: SW-620
K562 = tested on: K562
SN12C = tested on: SN12C
SNB-19 = tested on: SNB-19
OVCAR-8 = tested on: OVCAR-8
SK-MEL-28 = tested on: SK-MEL-28
UACC-257 = tested on: UACC-257
UO-31 = tested on: UO-31

SMILES: C=CCC1C2CCC(O[Si](C(C)C)(C(C)C)C(C)C)(C(C(=O)OC)C2)C1O (stereo not drawn)
- GI50 (SR): 17.6 µM (inactive)
- GI50 (EKVX): 22.4 µM (inactive)
- GI50 (MDA-MB-435): 53.7 µM (inactive)
- GI50 (T47D): 38.8 µM (inactive)
- GI50 (A498): > 100 µM (inactive)
- GI50 (HOP-62): > 100 µM (inactive)
- GI50 (SK-OV-3): > 100 µM (inactive)
- GI50 (OVCAR-4): > 100 µM (inactive)
- GI50 (SK-MEL-2): 41.9 µM (inactive)
- GI50 (Hs-578T): 23.6 µM (inactive)
- GI50 (MDA-N): > 100 µM (inactive)
- GI50 (MCF7): 35.4 µM (inactive)
- GI50 (NCI-H460): 61.8 µM (inactive)
- GI50 (SF-539): > 100 µM (inactive)
- GI50 (NCI/ADR-RES): > 100 µM (inactive)
- GI50 (HCT-116): 19.5 µM (inactive)
- GI50 (KM12): 54.5 µM (inactive)
- GI50 (HOP-92): > 100 µM (inactive)
- GI50 (CAKI-1): > 100 µM (inactive)
- GI50 (SK-MEL-5): 53 µM (inactive)
- GI50 (NCI-H226): > 100 µM (inactive)
- GI50 (SF-268): > 100 µM (inactive)
- GI50 (786-0): 17.2 µM (inactive)
- GI50 (OVCAR-3): > 100 µM (inactive)
- GI50 (HCT-15): 77.3 µM
- GI50 (RPMI-8226): 72.6 µM (inactive)
- GI50 (HT-29): 53.7 µM (inactive)
- GI50 (MOLT-4): 35.2 µM (inactive)
- GI50 (COLO 205): > 100 µM (inactive)
- GI50 (NCI-H23): 23.5 µM (inactive)
- GI50 (CCRF-CEM): 60.8 µM (inactive)
- GI50 (M14): 94.8 µM (inactive)
- GI50 (A549): 32.9 µM (inactive)
- GI50 (OVCAR-5): > 100 µM (inactive)
- GI50 (SNB-75): 71.1 µM (inactive)
- GI50 (PC-3): 67.5 µM (inactive)
- GI50 (U-251): 60.3 µM (inactive)
- GI50 (ACHN): > 100 µM (inactive)
- GI50 (MDA-MB-231): > 100 µM (inactive)
- GI50 (UACC-62): 55.2 µM (inactive)
- GI50 (TK-10): 14.4 µM (inactive)
- GI50 (IGROV-1): 69.2 µM (inactive)
- GI50 (DU-145): > 100 µM (inactive)
- GI50 (HL-60): 13.3 µM (inactive)
- GI50 (SF-295): 23.4 µM (inactive)
- GI50 (SW-620): > 100 µM (inactive)
- GI50 (K562): 71.9 µM (inactive)
- GI50 (SN12C): > 100 µM (inactive)
- GI50 (SNB-19): > 100 µM (inactive)
- GI50 (OVCAR-8): > 100 µM (inactive)
- GI50 (SK-MEL-28): 65.8 µM (inactive)
- GI50 (UACC-257): 38.3 µM (inactive)
- GI50 (UO-31): 49.2 µM (inactive)
